Assay results: the supplement of paper PMC4862054

Experiments:
Assay in all cases: normalised viability (% of control), CellTiter-Blue; higher = more viable cells (about 100 = DMSO control)
[1] = test system: SK-BR-3; conditions: 100 nM; incubation time: 72 h
Description: (§1)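 DSRT, CellTiter-Blue viability, 72 h incubation. Signal is normalised to DMSO and benzethonium chloride controls. Value is the normalised response at dose 3.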

[2] = test system: CAL-148; conditions: 10 nM; incubation time: 72 h
Description: as §1

[3] = test system: HCC1937; conditions: 100 nM; incubation time: 72 h
Description: as §1

[4] = test system: MDA-MB-436; conditions: 100 nM; incubation time: 72 h
Description: as §1

[5] = test system: HDQ-P1; conditions: 10 nM; incubation time: 72 h
Description: as §1

[6] = test system: CAL-85-1; conditions: 10 nM; incubation time: 72 h
Description: as §1

[7] = test system: CAL-120; conditions: 100 nM; incubation time: 72 h
Description: as §1

[8] = test system: MDA-MB-468; conditions: 100 nM; incubation time: 72 h
Description: as §1

[9] = test system: CAL-51; conditions: 10 nM; incubation time: 72 h
Description: as §1

[10] = test system: BT-474; conditions: 100 nM; incubation time: 72 h
Description: as §1

[11] = test system: MFM-223; conditions: 100 nM; incubation time: 72 h
Description: as §1

[12] = test system: HCC1599; conditions: 100 nM; incubation time: 72 h
Description: as §1

[13] = test system: MDA-MB-231; conditions: 100 nM; incubation time: 72 h
Description: as §1

[14] = test system: HCC1143; conditions: 100 nM; incubation time: 72 h
Description: as §1

[15] = test system: DU-4475; conditions: 10 nM; incubation time: 72 h
Description: as §1

[16] = test system: Hs578T; conditions: 100 nM; incubation time: 72 h
Description: as §1

[17] = test system: BT-549; conditions: 100 nM; incubation time: 72 h
Description: as §1

[18] = test system: MDA-MB-453; conditions: 10 nM; incubation time: 72 h
Description: as §1

[19] = test system: CAL-148; conditions: 10000 nM; incubation time: 72 h
Description: (§2)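 DSRT, CellTiter-Blue viability, 72 h incubation. Signal is normalised to DMSO and benzethonium chloride controls. Value is the normalised response at dose 9.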

[20] = test system: HDQ-P1; conditions: 10000 nM; incubation time: 72 h
Description: as §2

[21] = test system: CAL-85-1; conditions: 10000 nM; incubation time: 72 h
Description: as §2

[22] = test system: CAL-51; conditions: 10000 nM; incubation time: 72 h
Description: as §2

[23] = test system: DU-4475; conditions: 10000 nM; incubation time: 72 h
Description: as §2

[24] = test system: MDA-MB-453; conditions: 10000 nM; incubation time: 72 h
Description: as §2

[25] = test system: CAL-148; conditions: 300 nM; incubation time: 72 h
Description: (§3)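 DSRT, CellTiter-Blue viability, 72 h incubation. Signal is normalised to DMSO and benzethonium chloride controls. Value is the normalised response at dose 6.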

[26] = test system: HDQ-P1; conditions: 300 nM; incubation time: 72 h
Description: as §3

[27] = test system: CAL-85-1; conditions: 300 nM; incubation time: 72 h
Description: as §3

[28] = test system: CAL-51; conditions: 300 nM; incubation time: 72 h
Description: as §3

[29] = test system: DU-4475; conditions: 300 nM; incubation time: 72 h
Description: as §3

[30] = test system: MDA-MB-453; conditions: 300 nM; incubation time: 72 h
Description: as §3

Row | SMILES | normalised viability [1] [%] | normalised viability [2] [%] | normalised viability [3] [%] | normalised viability [4] [%] | normalised viability [5] [%] | normalised viability [6] [%] | normalised viability [7] [%] | normalised viability [8] [%] | normalised viability [9] [%] | normalised viability [10] [%] | normalised viability [11] [%] | normalised viability [12] [%] | normalised viability [13] [%] | normalised viability [14] [%] | normalised viability [15] [%] | normalised viability [16] [%] | normalised viability [17] [%] | normalised viability [18] [%] | normalised viability [19] [%] | normalised viability [20] [%] | normalised viability [21] [%] | normalised viability [22] [%] | normalised viability [23] [%] | normalised viability [24] [%] | normalised viability [25] [%] | normalised viability [26] [%] | normalised viability [27] [%] | normalised viability [28] [%] | normalised viability [29] [%] | normalised viability [30] [%]
1 | O=C(Cc1ccc(-c2ccc(OCCN3CCOCC3)cc2)cn1)NCc1ccccc1 [KX2-391] | 19.3 | 89.1 | 25.1 | 59.9 | 108 | 88.1 | 27.6 | 47.6 | 101 | 63.5 | 52.8 | 88 | 26.1 | 33 | 94.4 | 20.7 | 27.8 | 107 | 34.2 | 47.6 | 45.4 | 12.5 | 15.5 | 38.1 | 20.4 | 46.6 | 36.3 | 13.9 | 9.43 | 28.3
2 | O=C(O)C(=O)O.[NH-][C@@H]1CCCC[C@H]1[NH-].[Pt+2] [Oxaliplatin] | 94 | 127 | 89.1 | 96.1 | 119 | 92 | 91 | 107 | 103 | 127 | 91.8 | 96.1 | 89 | 98.2 | 95.9 | 95.7 | 89.1 | 114 | 18.1 | 60.2 | 66.5 | 39 | 41.8 | 28.5 | 121 | 78.4 | 96.9 | 95.5 | 113 | 98.8
3 | C=CC(=O)Nc1cc2c(Nc3ccc(F)c(Cl)c3)ncnc2cc1OCCCN1CCOCC1 [Canertinib] | 21.4 | 81.9 | 97.4 | 102 | 96.6 | 85.4 | 81.5 | 67.1 | 109 | 55.7 | 98.3 | 91.8 | 91.7 | 90.1 | 108 | 79.4 | 114 | 95 | 29.8 | 1.8 | 2.97 | 4.95 | 6.91 | 10.3 | 81.2 | 32.4 | 54 | 104 | 93.3 | 48.6
